From ChEMBL document CHEMBL5380800, “Discovery of Small-Molecule Autophagy Inhibitors by Disrupting the Protein-Protein Interactions Involving Autophagy-Related 5” (J Med Chem, 2023)
pIC50: −log10 of the molar value. Calls of active or inactive are those of the source. The rule behind the calls is not given here.

How the values were obtained:
[1] = Inhibition of ATG5-ATG16L1 (unknown origin) protein protein interaction expressed in Escherichia coli BL21 (DE3) by HTRF method; parameters: species or system Homo sapiens; settings: for pIC50: read-out: IC50
[2] = tested on: COS-7; assay: Inhibition of autophagy in African green monkey COS-7 cells at 20 uM by flow cytometry analysis relative to control; format: functional; settings: Chlorocebus aethiops
[3] = Inhibition of ATG5-TECAIR (unknown origin) protein protein interaction expressed in Escherichia coli BL21 (DE3) by HTRF method; parameters: species or system Homo sapiens; settings: for pIC50: read-out: IC50
[4] = tested on: COS-7; assay: Inhibition of autophagy in African green monkey COS-7 cells assessed as effect on LC3 level at upto 40 uM by flow cytometry analysis; format: functional, cell-based; settings: Chlorocebus aethiops

IC50 [1] | IC50 [3] | pIC50 [1] | pIC50 [3] | SMILES | inhibition at 20 µM [2] [%] | inhibition [4]
Not Active | Not Active |  |  | COC(=O)c1ccc(N2C(=O)/C(=C/c3ccc(-c4ccc([N+](=O)[O-])cc4)o3)C=C2c2ccccc2)cc1 | 98.9 | 
 |  | 4.77 | 4.92 | O=C(O)c1ccc(N2C(=O)/C(=C/c3ccc(-c4ccc5nonc5c4)o3)C=C2c2ccccc2)cc1 | 94.7 | 
 |  | 4.92 | 4.66 | O=C(O)c1ccc(N2C(=O)/C(=C/c3ccc(-c4cc(F)c(F)c(F)c4)s3)C=C2c2ccccc2)cc1 | 97.6 | 
Not Active | Not Active |  |  | O=C1/C(=C/c2ccc(-c3ccc([N+](=O)[O-])cc3)o2)C=C(c2ccccc2)N1Cc1ccc(C(F)(F)F)cc1 | 87.7 | 
 |  | 4.74 | 4.52 | O=C(O)c1ccc(N2C(=O)/C(=C/c3ccc(-c4ccc([N+](=O)[O-])cc4)s3)C=C2c2ccccc2)cc1 | 90.9 | 
Not Active | Not Active |  |  | CC1=NN(c2ccc(C(=O)O)cc2)C(=O)/C1=C\c1ccc(-c2ccccc2P(C)(C)=O)o1 |  | 
 |  | < 4.48 | < 4.48 | NC(=O)c1ccc(-c2ccc(/C=C3\C=C(c4ccccc4)N(Cc4ccc(C(=O)O)cc4)C3=O)o2)cc1 | 38.9 | 
Not Active |  |  | < 4.48 | CS(=O)(=O)c1ccc(-c2ccc(/C=C3\C=C(c4ccccc4)N(Cc4ccc(C(=O)O)cc4)C3=O)o2)cc1 | 53.7 | 
 |  | < 4.48 | < 4.48 | O=C(O)c1ccc(N2C(=O)/C(=C/c3ccc(-c4ccc(O)cc4)o3)C=C2c2ccccc2)cc1 | 97.1 | 
 |  |  |  | Cn1cnc(N)c2ncnc1-2 |  | inactive
Not Active |  |  | < 4.48 | CC1=NN(c2ccc(C(=O)O)cc2)C(=O)C1Cc1ccc(-c2cccc([N+](=O)[O-])c2)s1 (configuration not stated) |  | 
Not Active | Not Active |  |  | COC(=O)c1ccc(CN2C(=O)/C(=C/c3ccc(-c4ccc([N+](=O)[O-])cc4)o3)C=C2c2ccccc2)cc1 | 59.8 | 
Not Active | Not Active |  |  | N#Cc1ccc(-c2ccc(/C=C3\C=C(c4ccccc4)N(c4ccc(C(=O)O)cc4)C3=O)s2)cc1 | 93.9 | 
Not Active |  |  | < 4.48 | CC1=NN(c2ccc(C(=O)O)cc2)C(=O)C1Cc1ccc(-c2cc(C)c(C)cc2[N+](=O)[O-])s1 (configuration not stated) |  | 
Not Active |  |  | 4.68 | O=C(O)CCCN1C(=O)/C(=C/c2ccc(-c3ccc([N+](=O)[O-])cc3)o2)C=C1c1ccccc1 | 5.3 | 
 |  | 4.92 | 5.00 | O=C(O)c1ccc(N2C(=O)/C(=C/c3ccc(-c4ccc(O)cc4)s3)C=C2c2ccccc2)cc1 | 98.8 | 
 |  | < 4.48 | 4.72 | O=C(O)c1ccc(N2C(=O)/C(=C/c3ccc(-c4ccc(Br)cc4)o3)C=C2c2ccccc2)cc1 | 97.3 | 
 |  | < 4.48 | < 4.48 | O=C(O)c1ccc(CN2C(=O)/C(=C/c3ccc(-c4ccccc4)o3)C=C2c2ccccc2)cc1 | 20.6 | 
 |  | < 4.00 | 4.77 | O=C(O)CCN1C(=O)/C(=C/c2ccc(-c3ccc([N+](=O)[O-])cc3)o2)C=C1c1ccccc1 | 21.4 | 
 |  | 5.28 | 5.22 | CC1=NN(c2ccc(C(=O)O)cc2)C(=O)/C1=C\c1ccc(-c2ccc([N+](=O)[O-])cc2)s1 |  | 
 |  | 4.57 | 4.79 | CC(=O)c1ccc(-c2ccc(/C=C3\C=C(c4ccccc4)N(Cc4ccc(C(=O)O)cc4)C3=O)o2)cc1 | 14.6 | 
 |  | 4.56 | 4.83 | CC(=O)c1cccc(-c2ccc(/C=C3\C=C(c4ccccc4)N(Cc4ccc(C(=O)O)cc4)C3=O)o2)c1 |  | 
 |  | 5.21 | 4.98 | O=C(O)c1ccc(CN2C(=O)/C(=C/c3ccc(-c4cccc([N+](=O)[O-])c4)o3)C=C2c2ccccc2)cc1 | 36 | 
 |  | < 4.48 | < 4.48 | Cc1cc(-c2ccc(CC3C(=O)N(c4ccc(C(=O)O)cc4)N=C3C3CC3)s2)c([N+](=O)[O-])cc1C (configuration not stated) |  | 
 |  | < 4.48 | 4.77 | O=C(O)c1ccc(N2C(=O)/C(=C/c3ccc(-c4ccc(Cl)cc4)o3)C=C2c2ccccc2)cc1 | 98.2 | 
 |  |  |  | CCN(CCO)CCCC(C)Nc1ccnc2cc(Cl)ccc12 (configuration not stated) |  | inactive
 |  | < 4.48 | < 4.48 | CC1=NN(c2ccc(-n3cnnn3)cc2)C(=O)/C1=C\c1ccc(-c2cc(C)c(C)cc2[N+](=O)[O-])o1 |  | 
Not Active | Not Active |  |  | COC(=O)CCCN1C(=O)/C(=C/c2ccc(-c3ccc([N+](=O)[O-])cc3)o2)C=C1c1ccccc1 | 74.5 | 
 |  | < 4.48 | < 4.48 | CC1=NN(c2ccc(C(=O)O)cc2)C(=O)/C1=C\c1ccc(-c2cc(C)c(C)cc2[N+](=O)[O-])o1 |  | 
Not Active |  |  | < 4.48 | CC1=NN(c2ccccc2)C(=O)/C1=C\c1ccc(-c2cc(C)c(C)cc2[N+](=O)[O-])o1 |  | 
